Results: ChEMBL document CHEMBL4706640, “Structure-Based Drug Design and Synthesis of PI3Kα-Selective Inhibitor (PF-06843195)” (J Med Chem, 2021)
Values after ≈ are worked out from the molar mass of the structure shown. Each block holds one molecule with its values, some of them ahead of it.

What was measured:
Homo sapiens [1] = species: Homo sapiens; assay: Selectivity index, ratio of IC50 for recombinant human N-terminal Myr signal and C-terminal Flag-tagged PI3K p110beta to Ki for recombinant human full-length PI3K p110alpha/p85alpha
Rat1 [2] = assay: Selectivity index, ratio of IC50 for recombinant human N-terminal Myr signal and C-terminal Flag-tagged PI3K p110beta to IC50 for recombinant human N-terminal Myr signal and C-terminal Flag-tagged PI3K p110alpha expressed in rat Rat1 cells; type: cell-based
T47D = assay: Antiproliferation activity against human T47D cells assessed as reduction in cell viability incubated for 7 days by Cell-titer Glo reagent based assay; type: functional; conditions: 168 h
[3] = Tmax in Wistar Han rat at 10 mg/kg, po; type: ADME, organism-based; conditions: in vivo
[4] = Plasma clearance in Wistar Han rat at 2 mg/kg, iv; type: ADME, organism-based
[5] = Cmax in Wistar Han rat at 10 mg/kg, po; type: ADME, organism-based; parameters: route oral, dose 10 mg/kg; conditions: in vivo
[6] = target: Phosphatidylinositol 4,5-bisphosphate 3-kinase catalytic subunit beta isoform (Homo sapiens, UniProt P42338); assay: Inhibition of recombinant human N-terminal Myr signal and C-terminal Flag-tagged PI3K p110beta expressed in rat Rat1 cells; type: cell-based
Phosphatidylinositol 4,5-bisphosphate 3-kinase catalytic subunit beta isoform, sequence (P42338 whole entry, canonical isoform): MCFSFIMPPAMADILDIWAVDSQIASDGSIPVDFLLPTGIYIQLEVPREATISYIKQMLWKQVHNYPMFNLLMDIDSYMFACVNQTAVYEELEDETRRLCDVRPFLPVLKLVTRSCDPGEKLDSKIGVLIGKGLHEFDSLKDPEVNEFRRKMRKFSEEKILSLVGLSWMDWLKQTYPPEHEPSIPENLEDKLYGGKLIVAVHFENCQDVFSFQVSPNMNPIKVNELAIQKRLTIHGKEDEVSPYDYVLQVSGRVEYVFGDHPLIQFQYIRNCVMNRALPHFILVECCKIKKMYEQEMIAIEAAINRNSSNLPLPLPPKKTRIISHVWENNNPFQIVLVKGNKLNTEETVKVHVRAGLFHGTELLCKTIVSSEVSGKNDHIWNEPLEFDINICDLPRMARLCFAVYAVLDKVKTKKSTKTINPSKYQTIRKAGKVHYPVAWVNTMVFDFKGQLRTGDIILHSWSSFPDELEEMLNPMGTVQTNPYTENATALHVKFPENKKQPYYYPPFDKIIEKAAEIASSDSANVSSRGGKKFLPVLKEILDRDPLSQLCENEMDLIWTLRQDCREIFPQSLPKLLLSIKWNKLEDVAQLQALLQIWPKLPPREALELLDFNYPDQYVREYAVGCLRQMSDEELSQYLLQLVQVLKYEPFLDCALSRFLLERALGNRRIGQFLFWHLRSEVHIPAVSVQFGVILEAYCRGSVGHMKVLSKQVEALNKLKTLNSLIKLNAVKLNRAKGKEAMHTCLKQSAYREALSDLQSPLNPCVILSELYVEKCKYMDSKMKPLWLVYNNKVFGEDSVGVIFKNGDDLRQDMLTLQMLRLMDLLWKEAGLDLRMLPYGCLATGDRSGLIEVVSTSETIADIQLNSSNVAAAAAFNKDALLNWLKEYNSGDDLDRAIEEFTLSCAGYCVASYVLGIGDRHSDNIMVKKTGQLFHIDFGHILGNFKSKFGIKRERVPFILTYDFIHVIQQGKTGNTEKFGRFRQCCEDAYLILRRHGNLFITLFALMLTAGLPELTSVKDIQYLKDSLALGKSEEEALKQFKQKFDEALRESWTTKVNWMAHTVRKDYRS

Rat1 [7] = assay: Selectivity index, ratio of IC50 for recombinant human N-terminal Myr signal and C-terminal Flag-tagged PI3K p110delta to IC50 for recombinant human N-terminal Myr signal and C-terminal Flag-tagged PI3K p110alpha expressed in rat Rat1 cells; type: cell-based
[8] = Inhibition of PI3K p110alpha […] mutant in human MCF7 cells assessed as reduction in phosphorylation of Akt at T308 residue incubated for 2 hrs by ELISA; type: cell-based; conditions: MCF7, 2 h
[9] = target: T1, Phosphatidylinositol 4,5-bisphosphate 3-kinase catalytic subunit delta isoform (Homo sapiens, UniProt O00329); assay: Inhibition of recombinant human N-terminal Myr signal and C-terminal Flag-tagged PI3K p110delta expressed in rat Rat1 cells; type: cell-based
T1 sequence (O00329 whole entry): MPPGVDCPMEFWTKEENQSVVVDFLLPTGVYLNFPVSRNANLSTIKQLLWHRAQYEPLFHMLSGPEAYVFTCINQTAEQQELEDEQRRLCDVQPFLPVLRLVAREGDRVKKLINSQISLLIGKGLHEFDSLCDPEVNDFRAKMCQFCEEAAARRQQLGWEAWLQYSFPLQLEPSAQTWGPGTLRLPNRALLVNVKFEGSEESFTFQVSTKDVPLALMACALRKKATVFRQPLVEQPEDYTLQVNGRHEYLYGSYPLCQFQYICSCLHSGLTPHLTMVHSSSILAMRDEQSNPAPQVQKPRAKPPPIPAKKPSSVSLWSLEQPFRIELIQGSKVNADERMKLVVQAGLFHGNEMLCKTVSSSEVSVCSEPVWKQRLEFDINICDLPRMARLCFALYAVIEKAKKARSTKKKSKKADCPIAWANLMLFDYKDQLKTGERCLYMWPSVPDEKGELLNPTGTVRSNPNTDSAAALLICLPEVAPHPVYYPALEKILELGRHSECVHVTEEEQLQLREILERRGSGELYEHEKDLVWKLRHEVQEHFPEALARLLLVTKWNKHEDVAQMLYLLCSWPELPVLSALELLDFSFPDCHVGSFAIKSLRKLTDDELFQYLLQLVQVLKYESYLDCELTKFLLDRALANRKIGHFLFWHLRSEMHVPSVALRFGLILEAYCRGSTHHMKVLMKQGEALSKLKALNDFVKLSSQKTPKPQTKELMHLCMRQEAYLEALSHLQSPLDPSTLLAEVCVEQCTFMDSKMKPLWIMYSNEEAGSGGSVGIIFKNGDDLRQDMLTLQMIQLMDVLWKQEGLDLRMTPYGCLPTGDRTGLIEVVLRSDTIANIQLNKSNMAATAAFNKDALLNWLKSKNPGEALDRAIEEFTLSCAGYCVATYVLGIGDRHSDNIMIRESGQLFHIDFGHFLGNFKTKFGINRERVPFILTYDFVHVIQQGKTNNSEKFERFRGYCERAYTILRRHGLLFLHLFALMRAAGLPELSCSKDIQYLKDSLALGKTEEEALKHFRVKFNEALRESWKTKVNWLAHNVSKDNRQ

Homo sapiens [10] = species: Homo sapiens; assay: Selectivity index, ratio of IC50 for recombinant human N-terminal Myr signal and C-terminal Flag-tagged PI3K p110delta to Ki for recombinant human full-length PI3K p110alpha/p85alpha
[11] = Thermodynamic solubility of compound at pH 7.4; type: physicochemical; conditions: buffer, read-out: Therm_solubility
PI3K p110 beta/p85 alpha = PI3K p110 beta/p85 alpha (Homo sapiens, UniProt P42338); assay: Inhibition of recombinant human PI3K p110beta/p85alpha using phosphatidylinositol 4,5-bisphosphate as substrate preincubated for 15 mins followed by addition of ATP and measured after 30 mins by fluorescence polarisation assay; type: protein-complex assay
PI3K p110 beta/p85 alpha, sequence (P27986 whole entry): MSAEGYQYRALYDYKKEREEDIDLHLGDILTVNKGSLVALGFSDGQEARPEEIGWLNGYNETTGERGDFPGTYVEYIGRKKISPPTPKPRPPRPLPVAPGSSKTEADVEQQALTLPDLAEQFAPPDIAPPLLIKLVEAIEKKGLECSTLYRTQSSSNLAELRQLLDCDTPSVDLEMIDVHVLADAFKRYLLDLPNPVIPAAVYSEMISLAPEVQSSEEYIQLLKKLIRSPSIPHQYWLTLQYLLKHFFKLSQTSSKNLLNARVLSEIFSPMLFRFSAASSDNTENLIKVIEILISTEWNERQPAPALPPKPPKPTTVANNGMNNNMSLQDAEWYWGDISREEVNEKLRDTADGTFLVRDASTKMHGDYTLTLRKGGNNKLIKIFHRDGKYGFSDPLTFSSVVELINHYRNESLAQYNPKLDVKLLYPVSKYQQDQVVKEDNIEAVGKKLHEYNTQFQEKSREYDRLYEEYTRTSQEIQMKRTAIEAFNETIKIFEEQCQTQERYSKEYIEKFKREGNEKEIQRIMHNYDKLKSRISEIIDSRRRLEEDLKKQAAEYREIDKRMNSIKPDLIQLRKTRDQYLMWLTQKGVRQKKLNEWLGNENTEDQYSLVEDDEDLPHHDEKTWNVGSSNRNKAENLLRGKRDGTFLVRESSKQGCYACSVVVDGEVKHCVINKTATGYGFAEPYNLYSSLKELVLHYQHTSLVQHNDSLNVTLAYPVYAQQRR
PI3K p110 beta/p85 alpha, sequence (P42338 whole entry): as the sequence (P42338 whole entry, canonical isoform) above

[12] = Oral bioavailability in Wistar Han rat at 10 mg/kg; type: ADME, organism-based; conditions: in vivo
[13] = Distribution coefficient, logD of compound at pH 7.4; type: physicochemical; conditions: octanol/water
[14] = Inhibition of PI3K p110alpha H1047R mutant in human T47D cells assessed as reduction in phosphorylation of Akt at T308 residue incubated for 2 hrs by ELISA; type: cell-based
[15] = Passive permeability of compound in RRCK cells; type: ADME, cell-based, Canis lupus familiaris, MDCKII-LE; conditions: dog, MDCK; read-out: permeability
[16] = AUC (0 to t) in Wistar Han rat at 2 mg/kg, iv; type: ADME, organism-based; parameters: dose 2 mg/kg; conditions: in vivo
[17] = Apparent intrinsic clearance in human liver microsomes; type: ADME, Microsome; conditions: read-out: CLH(app)
[18] = Kinetic solubility of compound; type: physicochemical; conditions: read-out: Kinetic_solubility
[19] = target: Serine/threonine-protein kinase mTOR (Homo sapiens, UniProt P42345); assay: Inhibition of mTOR in TSC1 null human MCF7 cells assessed as decrease in p70S6K phosphorylation at Thr389 residue incubated for 2 hrs by ELISA; type: cell-based
[20] = target: Phosphatidylinositol 4,5-bisphosphate 3-kinase catalytic subunit alpha isoform (Homo sapiens, UniProt P42336); assay: Inhibition of recombinant human N-terminal Myr signal and C-terminal Flag-tagged PI3K p110alpha expressed in rat Rat1 cells; type: cell-based
Phosphatidylinositol 4,5-bisphosphate 3-kinase catalytic subunit alpha isoform, sequence (P42336 whole entry, canonical isoform): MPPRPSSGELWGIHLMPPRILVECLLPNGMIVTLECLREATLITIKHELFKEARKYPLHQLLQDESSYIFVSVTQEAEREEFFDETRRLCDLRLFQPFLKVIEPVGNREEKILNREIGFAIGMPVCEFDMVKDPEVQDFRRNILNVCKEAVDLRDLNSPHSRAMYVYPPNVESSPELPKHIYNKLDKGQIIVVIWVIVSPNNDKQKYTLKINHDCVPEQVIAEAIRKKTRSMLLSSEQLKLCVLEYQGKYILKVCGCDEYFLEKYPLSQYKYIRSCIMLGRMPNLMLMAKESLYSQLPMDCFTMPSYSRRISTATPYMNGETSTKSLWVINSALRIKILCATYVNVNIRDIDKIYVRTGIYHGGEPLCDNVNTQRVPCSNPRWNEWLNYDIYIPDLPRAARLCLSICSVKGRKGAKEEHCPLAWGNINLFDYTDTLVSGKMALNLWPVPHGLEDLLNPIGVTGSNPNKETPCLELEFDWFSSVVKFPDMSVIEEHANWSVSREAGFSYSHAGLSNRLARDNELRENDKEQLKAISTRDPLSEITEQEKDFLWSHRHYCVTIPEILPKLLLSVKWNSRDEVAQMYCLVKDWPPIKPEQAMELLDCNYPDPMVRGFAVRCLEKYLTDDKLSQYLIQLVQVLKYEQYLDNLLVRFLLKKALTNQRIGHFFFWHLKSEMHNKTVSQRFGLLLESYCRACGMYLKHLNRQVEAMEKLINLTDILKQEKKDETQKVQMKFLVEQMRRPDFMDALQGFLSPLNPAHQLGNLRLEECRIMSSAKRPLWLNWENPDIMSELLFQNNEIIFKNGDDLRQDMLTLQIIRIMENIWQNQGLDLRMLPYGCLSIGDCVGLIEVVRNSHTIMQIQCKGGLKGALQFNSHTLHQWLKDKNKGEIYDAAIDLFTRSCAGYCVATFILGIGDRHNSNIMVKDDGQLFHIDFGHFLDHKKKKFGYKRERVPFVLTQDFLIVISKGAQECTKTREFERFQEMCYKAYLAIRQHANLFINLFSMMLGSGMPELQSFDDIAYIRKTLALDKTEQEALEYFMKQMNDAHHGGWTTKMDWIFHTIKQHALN

[21] = Half life in Wistar Han rat at 2 mg/kg, iv; type: ADME, organism-based; conditions: in vivo
MCF7 = assay: Antiproliferation activity against human MCF7 cells assessed as reduction in cell viability incubated for 7 days by Cell-titer Glo reagent based assay; type: functional; conditions: MCF7, 168 h
[22] = AUC (0 to t) in Wistar Han rat at 10 mg/kg, po; type: ADME, organism-based; parameters: dose 10 mg/kg; conditions: in vivo
[23] = target: PI3-kinase p110-delta/p85-alpha (Homo sapiens, UniProt O00329); assay: Inhibition of recombinant human PI3K p110delta/p85alpha using phosphatidylinositol 4,5-bisphosphate as substrate preincubated for 15 mins followed by addition of ATP and measured after 30 mins by fluorescence polarisation assay; type: protein-complex assay
PI3-kinase p110-delta/p85-alpha, sequence (P27986 whole entry, one chain of several): as the sequence (P27986 whole entry) above

[24] = Kinetic solubility of compound at pH 7.4 after 24 hrs by LC/MS/MS analysis; type: physicochemical; conditions: buffer, read-out: Kinetic_solubility
[25] = Volume of distribution at steady state in Wistar Han rat at 2 mg/kg, iv; type: ADME, organism-based; conditions: in vivo, read-out: Vdss
[26] = target: PI3-kinase p110-alpha/p85-alpha (Homo sapiens, UniProt P42336); assay: Inhibition of recombinant human full-length PI3K p110alpha/p85alpha (322 to 600) expressed in baculovirus infected Sf21 cells using phosphatidylinositol 4,5-bisphosphate as substrate preincubated for 15 mins followed by addition of ATP and measured after 30 mins by fluorescence polarisation assay
PI3-kinase p110-alpha/p85-alpha, sequence (P27986 whole entry): as above
PI3-kinase p110-alpha/p85-alpha, sequence (P42336 whole entry): as the sequence (P42336 whole entry, canonical isoform) above

Homo sapiens [27] = species: Homo sapiens; assay: Selectivity index, ratio of IC50 for mTOR in human MCF7 cells to Ki for recombinant human full-length PI3K p110alpha/p85alpha; type: cell-based

Selectivity Index (Homo sapiens [1]): 20
IC50 (T47D): 32 nM
Tmax [3]: 1 h
clearance [4]: 30 mL/min/kg
Cmax [5]: 330 ng/mL
IC50 [6]: 360 nM
IC50 [8]: 7.8 nM
IC50 [9]: 160 nM
Selectivity Index (Homo sapiens [10]): 9
solubility thermodynamic [11]: 6.2 µg/mL (≈ 12.4 µM)
Ki (PI3K p110 beta/p85 alpha): 2 nM
bioavailability [12]: 25%
logD [13]: 1.9
IC50 [14]: 8.7 nM
Papp [15]: 13 ×10⁻⁶ cm/s
AUC(0-t) [16]: 1100 ng·h/mL
microsomal CLint [17]: < 18 µL/min/mg
solubility kinetic [18]: 2.5 µM (≈ 1.25 µg/mL)
IC50 [19]: 1500 nM
IC50 [20]: 18 nM
half-life [21]: 3.6 h
IC50 (MCF7): 62 nM
AUC(0-t) [22]: 1400 ng·h/mL
Ki [23]: < 0.28 nM
solubility kinetic at 24 h [24]: 1.3 µg/mL (≈ 2.61 µM)
Vd [25]: 3 L/kg
Ki [26]: < 0.018 nM
SMILES: Nc1ncc(-c2nc(N3CCOCC3)nc(N[C@@]3(CO)CCN(C(=O)OCC(F)F)C3)c2F)cn1
Ratio IC50 (Rat1 [2]): 20
Ratio IC50 (Rat1 [7]): 9
Selectivity Index (Homo sapiens [27]): 83

IC50 (T47D): 420 nM
IC50 [8]: 39 nM
IC50 [14]: 30 nM
IC50 [19]: 3000 nM
IC50 (MCF7): 530 nM
SMILES: Cc1nc(NC(=O)N2CCC[C@H]2C(N)=O)sc1-c1ccnc(C(C)(C)C(F)(F)F)c1 [ALPELISIB]
